From patent US8883426B2, “Use of therapeutically effective lipids and method for producing organ-/tissue-specific therapeutically effective lipids” (PAT GmbH, priority 2005, dated 2014)

What was measured:
colitis ulcerosa = details: cited from earlier work
colon mucosa = details: topic application, rat models, colitis induced by acetic acid and trinitro-benzosulfonic acid; cited from earlier work
[1] = tested on: HepG2-cells (hepatocytes); assay: Selective enrichment of fluorescence-marked conjugate in HepG2-cells, fluorescence microscopy; type: cell-based; details: 50 uM, 37° C., 10 min., washed, treated with 5% beef-serum albumin
Method: In order to control the selective enrichment of the LysoPE-DOCA-compound HepG2-cells (hepatocytes) were incubated at 37° C. with a fluorescence-marked ursodeoxycholate-1-palmitoyl, 2-NBD-PE-conjugate (at 50 uM) for 10 min., washed, and subsequently treated with 5% beef-serum albumin in order to remove the conjugate from the exterior plasma membrane of the cells. Subsequently the cells are microscopic controlled in phase contrast and in fluorescent light.

[2] = oral, retarding packaged form, compared to placebo control group

## phosphatidyl choline
Colitis ulcerosa; oral, retarding packaged form with release in the lower small intestine and the colon
  inflammatory activity of colitis ulcerosa: significantly suppresses the inflammatory activity
Colitis ulcerosa; [2]
  improvement of the clinical activity on average: 70%
  patients treated in whom the improvement of clinical activity was achieved: 90%
Colitis ulcerosa; within three months
  patients reaching clinical remission: more than half of the patients reached even clinical remission
Colon mucosa
  protection of colon mucosa from induced colitis: protecting colon mucosa from colitis

## ursodeoxycholate-1-palmitoyl, 2-NBD-PE-conjugate
[1]
  enrichment in the cells under fluorescent-microscopic observation: intense yellow-green coloration in the cytoplasm but not in the core of the cell
